Results from PubChem BioAssay AID2060492 (Molecular Pharmacology Branch, DTP, NCI, 2025).

Tested on: 695427-040-R-J1-PDC complex spheroids, viability percent T/C
Assay: Anticancer human tumor 695427-040-R-J1-PDC patient-derived colon adenocarcinoma cell line growth inhibition [GQUAD]
Details: for IC50: curve of first compound; for viability, T/C: stronger effect = lower value
How it was run: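 Viability of tumor cells grown as complex spheroids with endothelial and stromal cells, exposed to drug combinations. Top concentration at or near clinical Cmax (else 10 microM), diluted in half-log increments.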

[1] = second compound 0.0316 µM, first compound 0.0316 µM
[2] = second compound 0.0316 µM, first compound 0.1 µM
[3] = second compound 0.0316 µM, first compound 0.316 µM
[4] = second compound 0.0316 µM, first compound 1 µM
[5] = second compound 0.0316 µM, first compound 3.16 µM
[6] = second compound 0.0316 µM, first compound 10 µM
[7] = second compound 0.1 µM, first compound 0.0316 µM
[8] = second compound 0.1 µM, first compound 0.1 µM
[9] = second compound 0.1 µM, first compound 0.316 µM
[10] = second compound 0.1 µM, first compound 1 µM
[11] = second compound 0.1 µM, first compound 3.16 µM
[12] = second compound 0.1 µM, first compound 10 µM
[13] = second compound 0.316 µM, first compound 0.0316 µM
[14] = second compound 0.316 µM, first compound 0.1 µM
[15] = second compound 0.316 µM, first compound 0.316 µM
[16] = second compound 0.316 µM, first compound 1 µM
[17] = second compound 0.316 µM, first compound 3.16 µM
[18] = second compound 0.316 µM, first compound 10 µM
[19] = second compound 1 µM, first compound 0.0316 µM
[20] = second compound 1 µM, first compound 0.1 µM
[21] = second compound 1 µM, first compound 0.316 µM
[22] = second compound 1 µM, first compound 1 µM
[23] = second compound 1 µM, first compound 3.16 µM
[24] = second compound 1 µM, first compound 10 µM
[25] = second compound 3.16 µM, first compound 0.0316 µM
[26] = second compound 3.16 µM, first compound 0.1 µM
[27] = second compound 3.16 µM, first compound 0.316 µM
[28] = second compound 3.16 µM, first compound 1 µM
[29] = second compound 3.16 µM, first compound 3.16 µM
[30] = second compound 3.16 µM, first compound 10 µM
[31] = second compound 10 µM, first compound 0.0316 µM
[32] = second compound 10 µM, first compound 0.1 µM
[33] = second compound 10 µM, first compound 0.316 µM
[34] = second compound 10 µM, first compound 1 µM
[35] = second compound 10 µM, first compound 3.16 µM
[36] = second compound 10 µM, first compound 10 µM
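Further: spheroids exposed to compounds for seven days before readout.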

CCCS(=O)(=O)Nc1ccc(F)c(C(=O)c2c[nH]c3ncc(-c4ccc(Cl)cc4)cc23)c1F + CN(C)c1ccc(Nc2c3ccc(NC(=O)CCN4CCCC4)cc3nc3cc(NC(=O)CCN4CCCC4)ccc23)cc1
IC50 (second compound 0.0316 µM): > 10 µM
IC50 (second compound 0.1 µM): > 10 µM
IC50 (second compound 0.316 µM): > 10 µM
IC50 (second compound 1 µM): > 10 µM
IC50 (second compound 3.16 µM): > 10 µM
IC50 (second compound 10 µM): > 10 µM
viability, T/C [1]: 108%
viability, T/C [2]: 99.9%
viability, T/C [3]: 106%
viability, T/C [4]: 106%
viability, T/C [5]: 122%
viability, T/C [6]: 68.1%
viability, T/C [7]: 103%
viability, T/C [8]: 94.5%
viability, T/C [9]: 104%
viability, T/C [10]: 109%
viability, T/C [11]: 111%
viability, T/C [12]: 65.9%
viability, T/C [13]: 105%
viability, T/C [14]: 108%
viability, T/C [15]: 101%
viability, T/C [16]: 106%
viability, T/C [17]: 123%
viability, T/C [18]: 68.3%
viability, T/C [19]: 98.7%
viability, T/C [20]: 99.3%
viability, T/C [21]: 107%
viability, T/C [22]: 119%
viability, T/C [23]: 121%
viability, T/C [24]: 64.2%
viability, T/C [25]: 91%
viability, T/C [26]: 103%
viability, T/C [27]: 94.5%
viability, T/C [28]: 100%
viability, T/C [29]: 110%
viability, T/C [30]: 72.4%
viability, T/C [31]: 86.6%
viability, T/C [32]: 89.3%
viability, T/C [33]: 90.9%
viability, T/C [34]: 91.2%
viability, T/C [35]: 90%
viability, T/C [36]: 67.5%

COc1cc(C2c3cc4c(cc3C(OC3OC5COC(C)OC5C(O)C3O)C3COC(=O)C23)OCO4)cc(OC)c1O (stereo not drawn) + CN(C)c1ccc(Nc2c3ccc(NC(=O)CCN4CCCC4)cc3nc3cc(NC(=O)CCN4CCCC4)ccc23)cc1
IC50 (second compound 0.0316 µM): > 10 µM
IC50 (second compound 0.1 µM): > 10 µM
IC50 (second compound 0.316 µM): > 10 µM
IC50 (second compound 1 µM): > 10 µM
IC50 (second compound 3.16 µM): > 10 µM
IC50 (second compound 10 µM): > 10 µM
viability, T/C [1]: 108%
viability, T/C [2]: 90.1%
viability, T/C [3]: 95.7%
viability, T/C [4]: 97.8%
viability, T/C [5]: 85.2%
viability, T/C [6]: 80%
viability, T/C [7]: 88.1%
viability, T/C [8]: 91.6%
viability, T/C [9]: 95.7%
viability, T/C [10]: 83.5%
viability, T/C [11]: 89.8%
viability, T/C [12]: 76.9%
viability, T/C [13]: 100%
viability, T/C [14]: 91.5%
viability, T/C [15]: 88.1%
viability, T/C [16]: 89.2%
viability, T/C [17]: 90.5%
viability, T/C [18]: 76.7%
viability, T/C [19]: 88.9%
viability, T/C [20]: 97.4%
viability, T/C [21]: 94.4%
viability, T/C [22]: 93.3%
viability, T/C [23]: 88.1%
viability, T/C [24]: 72.6%
viability, T/C [25]: 89.1%
viability, T/C [26]: 90.9%
viability, T/C [27]: 96.7%
viability, T/C [28]: 90.3%
viability, T/C [29]: 91%
viability, T/C [30]: 76.5%
viability, T/C [31]: 87.2%
viability, T/C [32]: 77.4%
viability, T/C [33]: 81.2%
viability, T/C [34]: 80.8%
viability, T/C [35]: 77.5%
viability, T/C [36]: 66.4%

COc1cccc2c1C(=O)c1c(O)c3c(c(O)c1C2=O)CC(O)(C(=O)CO)CC3OC1CC(N)C(O)C(C)O1 (stereo not drawn) + CN(C)c1ccc(Nc2c3ccc(NC(=O)CCN4CCCC4)cc3nc3cc(NC(=O)CCN4CCCC4)ccc23)cc1
IC50 (second compound 0.0316 µM): 9.64 µM
IC50 (second compound 0.1 µM): > 10 µM
IC50 (second compound 0.316 µM): > 10 µM
IC50 (second compound 1 µM): 9.98 µM
IC50 (second compound 3.16 µM): 8.08 µM
IC50 (second compound 10 µM): > 10 µM
viability, T/C [1]: 97%
viability, T/C [2]: 86.8%
viability, T/C [3]: 90.3%
viability, T/C [4]: 82.3%
viability, T/C [5]: 63.1%
viability, T/C [6]: 49.7%
viability, T/C [7]: 102%
viability, T/C [8]: 92%
viability, T/C [9]: 85.9%
viability, T/C [10]: 81.3%
viability, T/C [11]: 66.6%
viability, T/C [12]: 53.2%
viability, T/C [13]: 93.2%
viability, T/C [14]: 89.4%
viability, T/C [15]: 90.2%
viability, T/C [16]: 80.5%
viability, T/C [17]: 63.8%
viability, T/C [18]: 50.1%
viability, T/C [19]: 90.6%
viability, T/C [20]: 87.2%
viability, T/C [21]: 81.5%
viability, T/C [22]: 78.3%
viability, T/C [23]: 69.3%
viability, T/C [24]: 49.4%
viability, T/C [25]: 97.1%
viability, T/C [26]: 87.2%
viability, T/C [27]: 87.6%
viability, T/C [28]: 77.9%
viability, T/C [29]: 65.5%
viability, T/C [30]: 46%
viability, T/C [31]: 89.2%
viability, T/C [32]: 84.6%
viability, T/C [33]: 81.8%
viability, T/C [34]: 76.1%
viability, T/C [35]: 68.2%
viability, T/C [36]: 52.3%

O=C(NO)c1cnc(N2CCN(S(=O)(=O)c3ccc4ccccc4c3)CC2)nc1 + CN(C)c1ccc(Nc2c3ccc(NC(=O)CCN4CCCC4)cc3nc3cc(NC(=O)CCN4CCCC4)ccc23)cc1
IC50 (second compound 0.0316 µM): 0.429 µM
IC50 (second compound 0.1 µM): 0.461 µM
IC50 (second compound 0.316 µM): 0.431 µM
IC50 (second compound 1 µM): 0.401 µM
IC50 (second compound 3.16 µM): 0.447 µM
IC50 (second compound 10 µM): 0.366 µM
viability, T/C [1]: 98.9%
viability, T/C [2]: 93.1%
viability, T/C [3]: 66.5%
viability, T/C [4]: 4.08%
viability, T/C [5]: 0.2%
viability, T/C [6]: 0.24%
viability, T/C [7]: 107%
viability, T/C [8]: 91.7%
viability, T/C [9]: 72.4%
viability, T/C [10]: 3.81%
viability, T/C [11]: 0.24%
viability, T/C [12]: 0.42%
viability, T/C [13]: 100%
viability, T/C [14]: 101%
viability, T/C [15]: 67.1%
viability, T/C [16]: 3.52%
viability, T/C [17]: 0.21%
viability, T/C [18]: 0.44%
viability, T/C [19]: 97.1%
viability, T/C [20]: 87.9%
viability, T/C [21]: 62.3%
viability, T/C [22]: 3.42%
viability, T/C [23]: 0.2%
viability, T/C [24]: 0.29%
viability, T/C [25]: 90.7%
viability, T/C [26]: 89.5%
viability, T/C [27]: 70%
viability, T/C [28]: 3.74%
viability, T/C [29]: 0.28%
viability, T/C [30]: 0.31%
viability, T/C [31]: 84%
viability, T/C [32]: 84.4%
viability, T/C [33]: 56.8%
viability, T/C [34]: 3.35%
viability, T/C [35]: 0.35%
viability, T/C [36]: 0.32%
